Our source for the TGI and GI50 values is PubChem BioAssay (NCI).

Molecules are shown by their SMILES.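 Exposure lasted 48 hours, with cells grown in 96-well plates and compounds tested at five concentrations. The concentration for 50% growth inhibition is given as GI50. TGI is the concentration that stops growth completely.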 Some results are limits rather than exact numbers.

Test systems include CCRF-CEM leukemia; HOP-18 NSCLC; U251 CNS; K-562 leukemia; NCI-H460 lung; OVCAR-5 ovarian; KM12 colon; SNB-19 CNS; SK-OV-3 ovarian; MCF7 breast.
Common to all, as to assay: NCI-60 cell line screen, 48 h

As for `C/C(=C1/N=C(c2cc([N+](=O)[O-])ccc2Cl)N(C2=CC=C(Cl)CC2)C1=O)c1cc2ccccc2oc1=O`, the TGI with CCRF-CEM leukemia, in the assay with HOP-18 NSCLC, in the assay with U251 CNS, in the assay on K-562 leukemia, with NCI-H460 lung and in the assay with OVCAR-5 ovarian was more than 100 µM each time. For the same compound, the TGI in the assay on KM12 colon, in the assay on SNB-19 CNS and in the assay with SK-OV-3 ovarian was more than 100 µM in each case.

As to `CCCCN(CCCC)c1ccc(N=Nc2ccc(S(=O)(=O)O)cc2)cc1`, the TGI is 38.4 µM with CCRF-CEM leukemia; more than 100 µM in the assay on U251 CNS; more than 100 µM in the assay with K-562 leukemia; more than 100 µM with NCI-H460 lung; more than 100 µM in the assay on OVCAR-5 ovarian; 32.8 µM in the assay on KM12 colon. The TGI in the assay on SNB-19 CNS was more than 100 µM; with MCF7 breast it was 49.6 µM; in the assay with SK-OV-3 ovarian, more than 100 µM.

As to `CC1=CC[C@H](C)C(C)(C)C1/C=C/C(C)=C/CC[C@@]1(CO)[C@H](CCCO)/C(=C(/C)C=O)CC[C@]1(C)O` (stereo partly specified), the TGI in the assay with CCRF-CEM leukemia was 24.9 µM; in the assay on HOP-18 NSCLC, 28.9 µM; in the assay on U251 CNS, 12.9 µM; in the assay with K-562 leukemia, 11.8 µM; in the assay on NCI-H460 lung it was 13.5 µM; with OVCAR-5 ovarian it was 38.2 µM. For the same compound, the TGI came to 9.63 µM in the assay with KM12 colon, 21.4 µM with SNB-19 CNS and 39.9 µM with SK-OV-3 ovarian.

With `CC(=O)/C=C/c1c[nH]c(=O)[nH]c1=O`, the TGI in the assay with CCRF-CEM leukemia was 649 µM; with U251 CNS, 503 µM; with K-562 leukemia it was 967 µM; in the assay on NCI-H460 lung, 613 µM; in the assay with OVCAR-5 ovarian, 618 µM; in the assay on KM12 colon, 439 µM. Further, the TGI in the assay on SNB-19 CNS was 903 µM; in the assay on MCF7 breast, 516 µM; in the assay with SK-OV-3 ovarian, 703 µM.

For the compound `Cc1cc(S(N)(=O)=O)c(S/C(=N\Nc2ccc([N+](=O)[O-])cc2)c2ccc(Cl)cc2)cc1Cl`, the TGI is more than 100 µM in the assay with CCRF-CEM leukemia; 5.41 µM with U251 CNS; more than 100 µM in the assay on K-562 leukemia; 5.3 µM with NCI-H460 lung; 4.15 µM in the assay with KM12 colon; 27 µM in the assay on SNB-19 CNS. The TGI worked out at 4.59 µM with MCF7 breast and 3.93 µM in the assay on SK-OV-3 ovarian.

With `O=C(COC(=O)c1ccccc1)c1ccc(Br)cc1`, the TGI was 25.9 µM in the assay with CCRF-CEM leukemia; 27.3 µM in the assay on U251 CNS; more than 100 µM in the assay with K-562 leukemia; 37.2 µM with NCI-H460 lung; 22.8 µM in the assay on OVCAR-5 ovarian; 37 µM with KM12 colon. The TGI stood at 30.5 µM with SNB-19 CNS, 24.8 µM in the assay with MCF7 breast and 33.3 µM with SK-OV-3 ovarian.

With `COc1cc2cnc3c(c2cc1OC)Cc1cc2c(cc1-3)OCO2`, the GI50 was less than 0.01 µM with CCRF-CEM leukemia; less than 0.01 µM in the assay with U251 CNS; less than 0.01 µM in the assay on K-562 leukemia; less than 0.01 µM in the assay with NCI-H460 lung; 35.5 µM with OVCAR-5 ovarian; less than 0.01 µM with KM12 colon. Besides, the GI50 was 0.0486 µM in the assay with SNB-19 CNS, 0.0333 µM in the assay on MCF7 breast and 0.0203 µM with SK-OV-3 ovarian. The TGI is 0.0344 µM in the assay with CCRF-CEM leukemia; 0.517 µM in the assay with U251 CNS; more than 100 µM in the assay on K-562 leukemia; 0.034 µM in the assay on NCI-H460 lung; 77.9 µM with OVCAR-5 ovarian; more than 100 µM in the assay on KM12 colon. Besides, the TGI with SNB-19 CNS is 37.7 µM; with MCF7 breast, more than 81.8 µM; with SK-OV-3 ovarian it was 26 µM.

As to `O=S(=O)(O)c1ccc(N=Nc2ccc(N=Nc3ccc(/C=C/c4ccc(N=[N+]([O-])c5ccc(/C=C/c6ccc(N=Nc7ccc(N=Nc8ccc(S(=O)(=O)O)cc8)c8ccccc78)cc6S(=O)(=O)O)c(S(=O)(=O)O)c5)cc4S(=O)(=O)O)c(S(=O)(=O)O)c3)c3ccccc23)cc1`, the TGI in the assay with CCRF-CEM leukemia, in the assay on HOP-18 NSCLC, in the assay on U251 CNS, with K-562 leukemia, in the assay on NCI-H460 lung and in the assay on OVCAR-5 ovarian was more than 100 µM throughout. The TGI in the assay on KM12 colon, in the assay with MCF7 breast and in the assay with SK-OV-3 ovarian was more than 100 µM in each case.

Regarding `Nc1ccccc1Sc1ccc(Cl)cc1`, the TGI is 46.6 µM in the assay on CCRF-CEM leukemia; more than 100 µM in the assay with HOP-18 NSCLC; 36.2 µM in the assay with U251 CNS; 94.4 µM in the assay on K-562 leukemia; 68.9 µM in the assay with NCI-H460 lung; more than 100 µM with OVCAR-5 ovarian. Further, the TGI in the assay on KM12 colon and with SK-OV-3 ovarian was more than 100 µM in each case.

Take `COc1cccc(NC(=O)N/C(=C/c2ccc(N(CCC#N)CCC#N)cc2)NC(=O)c2cc([N+](=O)[O-])ccc2Cl)c1`: the TGI with CCRF-CEM leukemia, in the assay on HOP-18 NSCLC, in the assay on U251 CNS, with K-562 leukemia, in the assay with OVCAR-5 ovarian and in the assay with KM12 colon was more than 100 µM throughout. Further, the TGI with SNB-19 CNS and in the assay with SK-OV-3 ovarian was more than 100 µM each time.

Consider `CNC=O`, for which the TGI in the assay on CCRF-CEM leukemia, in the assay with HOP-18 NSCLC, in the assay with U251 CNS, in the assay on K-562 leukemia, in the assay with NCI-H460 lung and in the assay on OVCAR-5 ovarian was more than 10000 µM in each case. Moreover, the TGI in the assay with KM12 colon is more than 10000 µM; in the assay on SNB-19 CNS, more than 10000 µM; with MCF7 breast it was more than 10000 µM; in the assay with SK-OV-3 ovarian, less than 3980 µM.
